# Where two headings read alike, the source gives them in different places.
# Columns and labels:
# [1] = test system: tyrosine hydroxylase (TH); assay: TH protein levels in mesolimbic pathway, morphine abstinence (Western blot); type: in vivo, rat; settings: RAP-103 + morphine, vs drug-naïve (P<0.05) and morphine only (P<0.01)
# Description: For 10 d, rats were given two injections during the dark cycle. One injection (RAP-103 [1 mg/kg] or saline) was delivered IP, and 5 min later the second injection (morphine [5 mg/kg] or saline) was given SC. Brain tissue was collected 24 h after the last morphine or saline injection for protein analysis of chemokine and opioid markers in the ventral tegmental area (VTA), nucleus accumbens (NAC) and prefrontal cortex (PFC).
# For immunoblotting experiments, tissue lysates were obtained using RIPA buffer, and were then homogenized. Samples were centrifuged for 15 minutes at 12,000 g. Supernatant were transferred to new tubes. […] Immunoreactive bands were quantified by Image Studio (Licor Ver 2.0) and normalized to the bands of GAPDH. […]
# Respiratory depression data were analyzed by two-way ANOVA (RAP-103 pretreatment×morphine treatment) followed by a Bonferroni's multiple comparison test. Physical dependence data were analyzed by a Student's t-test. Self-administration (SA) time-course data for heroin and sucrose were analyzed by two-way ANOVA (RAP-103 treatment x day) followed by a Bonferroni's multiple comparison test. SA PR challenge data were analyzed by a Student's t-test. Protein and mRNA data were analyzed by two-way ANOVA (RAP-103 pretreatment x morphine treatment) followed by a Newman-Keuls post-hoc analysis. […]
# [2] = test system: CXCR4; settings: cited from earlier work
# [3] = test system: CCR2; settings: cited from earlier work
# [4] = type: in vivo, Rhesus macaque (Macaca mulatta)
# Description: In non-human primates (rhesus monkeys) RAP-103 was dosed once on Day 1 by intravenous bolus injection at 1 mg/kg and plasma levels determined. […] Drug in plasma after a single IV dose (1 mg/Kg) was still measurable at anticipated therapeutic levels 96 hrs. post-dose in non-human primates as shown in FIG. 10B.
# [5] = test system: sucrose self-administration; assay: Sucrose self-administration (FR and PR); type: in vivo, rat (male Sprague Dawley); settings: RAP-103 1 mg/kg IP; P>0.05 vs saline
# Source text: Adult male Sprague Dawley (226-275 g) were purchased from Taconic Laboratories and maintained on a 12-hour/12-hour light/dark cycle with the lights off at 9:30 a.m. in a temperature- and humidity-controlled animal care facility. For the duration of the experiment, rats were housed two per cage and given unrestricted access to food and water at all times when in the home cage.
# Progressive ratio (PR) schedules of drug delivery are used to determine the ‘motivational’ state of an animal and drug reinforcing efficacy. A progressive ratio (PR) schedule requires the subject to perform an increasing number of lever presses for the next successive presentation of a reinforcer (e.g., heroin or sucrose). […] BP is a dependent measure used to quantify the degree to which the subject will work to get the next administration of the drug which serves as a reinforcer in the self-administration paradigm. […]
# Subjects were given access to self-administer sucrose pellets for 12-14 d for 2 h each day. […] All responses were recorded using the Med-Associates software. […]
# Respiratory depression data were analyzed by two-way ANOVA (RAP-103 pretreatment×morphine treatment) followed by a Bonferroni's multiple comparison test. Physical dependence data were analyzed by a Student's t-test. […] SA PR challenge data were analyzed by a Student's t-test. […]
# [6] = test system: opioid-induced respiratory depression; assay: Example 4: treatment of a subject prescribed a high level of opioids; type: in vivo, human; settings: oral pill, concurrent with opioids
# Source text: A subject is prescribed a high level of opioids to treat a pain. The subject is concurrently administered RAP-103 to treat opioid-induced respiratory depression. RAP-103 is orally administered to the subject as a pill to treat the opioid-induced respiratory depression. After administration, the subject has no change in their respiratory rate and blood oxygen levels (e.g., maintains full respiratory function).
# [7] = test system: neuropathic pain; settings: previous research; cited from earlier work
# [8] = test system: IBA1 mRNA
# [9] = test system: CCR2; settings: CCR2, monocyte chemotaxis; read-out: half maximal inhibitory concentration IC50; cited from earlier work
# [10] = test system: molecular hallmarks of neuropathic pain; settings: previous research; cited from earlier work
substance,measurement,setting,value
D-Thr-D-Thr-D-Asn-D-Tyr-D-Thr [RAP-103],"TH protein levels, PFC",[1],significantly elevated
same,"inhibition of chemokine ligand binding, CXCR4",[2],at least partially inhibits
same,"inhibition of chemokine ligand binding, CCR2",[3],at least partially inhibits
same,"AUC 0-T, male vs female",[4]; intravenous bolus 1 mg/kg,comparable in male and female monkeys
same,"Cmax, male vs female",[4]; intravenous bolus 1 mg/kg,comparable in male and female monkeys
same,absolute bioavailability,"[4]; males, 1 mg/kg, rhesus monkeys",89%
same,oral bioavailability,"[4]; non-human primates (Rhesus macaque), 1 mg/kg",88%
same,oral bioavailability,"[4]; primates, 1 mg/kg",> 88%
same,time drug in plasma still measurable at anticipated therapeutic levels,"[4]; single IV dose 1 mg/kg, post-dose",≥ 96 h
same,sucrose PR breakpoints,[5],not significantly different
same,sucrose-taking (FR-1 SA),[5],not significantly different
same,blood oxygen levels,[6],no change
same,respiratory rate,[6],no change
same,mechanical allodynia,[7],attenuate
same,thermal hyperalgesia,[7],attenuate
same,"IBA1 mRNA levels, NAC","[8]; RAP-103 + morphine vs drug-naïve and morphine by itself, P<0.01",significantly enhanced
same,"IBA1 mRNA, PFC","[8]; RAP-103/morphine exposure, P>0.05",significant changes in GFAP or IBA1 were not detected
same,"IBA1 mRNA levels, VTA","[8]; RAP-103 pretreatment vs drug-naïve, P<0.05",significantly increased IBA1 mRNA levels
same,"microglial mRNA levels, VTA and NAC",[8]; morphine-naïve and morphine-abstinent rats,enhanced microglial mRNA levels
same,IC50,[9],4.2 pM
same,cell membrane ruffling,[10],downregulate
same,immune cell migration,[10],downregulate
same,phagocytosis,[10],downregulate
